Test results: article PMC9436819 (JACC: Basic to Translational Science, 2022)
Entries after “also recorded” stand apart in the source; their conditions may differ. Read-outs that look alike come from different tables or passages of the source.

Experiments:
Type in all cases: in vivo, human
[1] = test system: healthy adults; assay: Overall safety and tolerability (AEs, ECG, vital signs, laboratory tests), all cohorts
Procedure: (§1) Safety was assessed by the incidence of adverse events (AEs) and by the incidence of reduced LVEF. Treatment-emergent AEs (TEAEs) were defined as AEs that began or increased after study drug administration. All AEs were coded using the Medical Dictionary for Regulatory Activities, version 21.1, and graded using the National Cancer Institute Common Terminology Criteria for AEs (version 4.03) 5-point severity scale.[18] Each AE was judged as either related or unrelated to the study drug by the treating investigator. Clinical laboratory tests were obtained at regular intervals in all cohorts.
For safety monitoring, participants in all cohorts had periodic echocardiograms, which were assessed by a cardiologist. In the SAD and MAD cohorts, echocardiograms were also reviewed by an echocardiography core laboratory for PD assessments, as described in the section on echocardiographic methods. In addition, participants in all cohorts were monitored with continuous 12-lead ECG recording using Holter monitors. For safety monitoring, a single 12-lead ECG was extracted at screening, predose, and periodically throughout follow-up and interpreted by the investigator. In the SAD, MAD, and CYP2D6-PM cohorts, cardiodynamic ECGs (triplicate 10-second, 12-lead ECG recordings) were obtained before the corresponding PK blood sample (see the Supplemental Appendix for full details on blood sampling), and ECG intervals were quantitated by qualified readers.

[2] = Plasma pharmacokinetics after multiple oral doses (MAD cohorts); conditions: for AUC / Cmax / Tmax / half-life: human, plasma, oral; for AUC / Cmax: geometric mean (geometric CV%); for Tmax: median (range)
Text: The MAD cohorts also used a randomized, double-blind, placebo-controlled, sequential design. […] For all study groups, blood samples for PK assessment were obtained predose, up to 12 times daily on day 1, and then at regular intervals throughout the study (see Supplemental Appendix for details). Standard noncompartmental methods were used to calculate PK parameters using Phoenix WinNonlin, version 7.0; actual sample collection times were used. […] Steady-state analysis In the M AD cohort, a steady- state an alysis for […] erfo rmed o n the ln-transformed plasma trough concentrat ion (Ctrough) values using Helmert contrasts. An analysis of variance (ANOVA) model was co nducted separately fo r each dose level; day w as in cluded as the fix ed effect. Helmert contrasts were d eveloped su ch that each time- point was compared with the mean of the subsequent time-points. Steady state was established at the time-point where no statistical differen ce (alpha = 5%, 2 -sided) was obs […] the subsequent time-points. 5

[3] = test system: healthy adults; assay: Treatment-emergent adverse events, multiple ascending dose (MAD) cohorts; conditions: n = 6
Procedure: as §1, with “The MAD cohorts also used a randomized, double-blind, placebo-controlled, sequential design. […] Safety” for “Safety”

## CCc1nc(-c2ccc3c(c2)CC[C@H]3NC(=O)c2cnn(C)c2)no1 [Aficamten]
[1]; all cohorts
  Discontinuation of the study because of AEs: no participants discontinued
  Serious AEs: no serious AEs; also recorded: without serious AEs
  Vital signs at postdose timepoints: within normal limits
[1]; all cohorts, exception of 2 individuals with baseline QTcF ≥440 ms whose QTcF increased by 3 and 13 ms
  QTcF at baseline or any assessment during the dosing interval: ≤ 450 ms
[1]; all cohorts, only exception was 1 participant in the SAD placebo group
  Increase in QTcF interval: ≤ 30 ms
[1]; during the study
  Serum chemistry, hematology, or urinalysis findings: No clinically significant
[1]; following single or multiple doses
  Effect on the QT interval (cardiodynamic assessments): no evidence of an effect
[1]; single doses of ≤50 mg or daily dosing of ≤10 mg for 14 or 17 days
  Tolerability: safe and well tolerated
[1]; single-dose and multiple-dose administration
  Severity of observed TEAEs: generally mild (grade 1)
[2]; 5-mg dose once daily
  Day by the end of which steady state was achieved: 12 days
[2]; 7.5-mg dose once daily
  Day by the end of which steady state was achieved: 12 days
[2]; 10-mg dose once daily
  Day by the end of which steady state was achieved: 10 days
[2]; 5 mg, Day 1, 5 mg qd × 14 d, n = 6, read-out: AUC24
  AUC: 278 ng·h/mL
[2]; 5 mg, Day 1, 5 mg qd × 14 d, n = 6, read-out: Cmax
  Cmax: 28 ng/mL
[2]; 5 mg, Day 1, 5 mg qd × 14 d, n = 6, read-out: Tmax
  Tmax: 1.3 h
[2]; 5 mg, Day 14, 5 mg qd × 14 d, arithmetic mean ± SD, n = 6, read-out: t½ (converted)
  half-life: 86.4 ± 11.9 h
[2]; 5 mg, Day 14, 5 mg qd × 14 d, n = 6, read-out: AUCtau
  AUC: 1320 ng·h/mL
[2]; 5 mg, Day 14, 5 mg qd × 14 d, n = 6, read-out: Cmax,ss
  Cmax: 69 ng/mL
[2]; 5 mg, Day 14, 5 mg qd × 14 d, n = 6, read-out: Tmax,ss
  Tmax: 2.8 h
[2]; 7.5 mg, Day 1, 7.5 mg qd × 17 d, n = 6, read-out: AUC24
  AUC: 551 ng·h/mL
[2]; 7.5 mg, Day 1, 7.5 mg qd × 17 d, n = 6, read-out: Cmax
  Cmax: 69.3 ng/mL
[2]; 7.5 mg, Day 1, 7.5 mg qd × 17 d, n = 6, read-out: Tmax
  Tmax: 0.8 h
[2]; 7.5 mg, Day 17, 7.5 mg qd × 17 d, arithmetic mean ± SD, n = 6, read-out: t½ (converted)
  half-life: 76.9 ± 14.5 h
[2]; 7.5 mg, Day 17, 7.5 mg qd × 17 d, n = 6, read-out: AUCtau
  AUC: 2520 ng·h/mL
[2]; 7.5 mg, Day 17, 7.5 mg qd × 17 d, n = 6, read-out: Cmax,ss
  Cmax: 148 ng/mL
[2]; 7.5 mg, Day 17, 7.5 mg qd × 17 d, n = 6, read-out: Tmax,ss
  Tmax: 1 h
[2]; 10 mg, 5, 7.5, 10 mg once daily, read-out: Terminal elimination half-life, range across multiple-dose cohorts
  half-life: 77 to 86 h
[2]; 10 mg, Day 1, 10 mg qd × 14 d, n = 6, read-out: AUC24
  AUC: 547 ng·h/mL
[2]; 10 mg, Day 1, 10 mg qd × 14 d, n = 6, read-out: Cmax
  Cmax: 54.4 ng/mL
[2]; 10 mg, Day 1, 10 mg qd × 14 d, n = 6, read-out: Tmax
  Tmax: 1 h
[2]; 10 mg, Day 14, 10 mg qd × 14 d, arithmetic mean ± SD, n = 6, read-out: t½ (converted)
  half-life: 79.8 ± 14.1 h
[2]; 10 mg, Day 14, 10 mg qd × 14 d, n = 6, read-out: AUCtau
  AUC: 2630 ng·h/mL
[2]; 10 mg, Day 14, 10 mg qd × 14 d, n = 6, read-out: Cmax,ss
  Cmax: 141 ng/mL
[2]; 10 mg, Day 14, 10 mg qd × 14 d, n = 6, read-out: Tmax,ss
  Tmax: 2.5 h
[2]; once-daily dosing
  Attainment of steady state: ≤ 2 weeks
[3]; MAD 5 mg qd × 14 d
  Participants with any TEAE: 1 (17) n (%)
  TEAE: Chapped lips: 1 (17) n (%)
  TEAE: Cough: 1 (17) n (%)
  TEAE: Salivary hypersecretion: 1 (17) n (%)
[3]; MAD 10 mg qd × 14 d
  Participants with any TEAE: 2 (33) n (%)
  TEAE: Headache: 1 (17) n (%)
  TEAE: Upper respiratory tract infection: 1 (17) n (%)
